Laboratory results reported in article PMC9227781, “Inhibitors of O-Acetylserine Sulfhydrylase with a Cyclopropane-Carboxylic Acid Scaffold Are Effective Colistin Adjuvants in Gram Negative Bacteria” (Pharmaceuticals, 2022).

Assays:
S. Typhimurium DW378 = assay: Target engagement: MIC of 12h and colistin in cysK/cysM-inactive mutant strain; format: cell-based, Salmonella enterica serovar Typhimurium
Protocol: In this regard, compound 12h has been selected because of its favorable overall properties. It has been tested at a concentration of 32 μg/mL, in order to ensure complete inactivation of both the OASS isoforms. […] The MIC assays of 12h and colistin alone on the DW378 strain have been performed and they have been compared with those obtained on the WT strain. […] But, on the other hand, the MIC value of colistin was […] lower on the mutant strain than that on the WT, a result that overlapped those achieved with the association of colistin and 12h in WT cells.
MIC values were evaluated following CLSI guidelines with some modifications, as referred to in previous work. Twofold dilutions 25.6–0.05 mg/mL of the tested compounds were performed in DMSO in separate 96-well microtiter U-plates (Greiner, Milan, Italy). In a different 96-well microtiter U-plate, for each well of the replicates, 49 µL of broth medium were added. Then, in each well of the plate, one microliter of each compound at variable dilution in DMSO was added. For each test, three independent experiments with three replicates each were performed.
(§1) Antimicrobial activity of associations between the different compounds and colistin (Sigma-Aldrich, St. Louis, MO, USA, lot n. 049M-4836 V) was tested with checkerboard assay with minor modifications, as mentioned in the previous work. For each assay, three experiments with three replicates each were assessed. For each compound tested concentration, 96-wells microtiter U-plates were prepared with twofold serial dilutions of colistin in MHB starting from the MIC value (µg/mL) for ten consecutive dilutions in 50 µL of broth. In each well of the same replicate, 1 µL of each compound in DMSO was added at a fixed concentration, 100 times higher than the final desired concentration (3.2; 1.6; 0.8 mg/mL). Subsequently, 49 µL of the bacterial suspension at a concentration of 10^6 CFU/mL, adjusted spectrophotometrically as reported above, was added to each well, reaching the final bacterial concentration of 5 × 10^5 CFU/mL. Growth and sterility controls were performed for each experiment and for each replicate. Finally, the plates were incubated at 37 °C in aerobic atmosphere for 24 h. After incubation, plates were read by unaided eye with a microtiter reading mirror and then the OD of each well of the plates was measured spectrophotometrically at 620 nm. MIC values were calculated as the arithmetic mean ± SD of the unaided eye reading and the inhibition of growth for each tested dilution was calculated from the OD values (mean ± SD).
* This strain is defective for the expression of cysK and cysM genes, encoding for isozymes OASS-A and B. The genotypes of this strain are trpC109, cysK1772, and cysM1770. […]

E. coli ATCC 25922 = assay: Checkerboard assay with colistin, E. coli; format: cell-based, Escherichia coli; conditions: for MIC Colistin E. coli: colistin in combination with compound at 8 μg/mL; for FIC Index E. coli / FIC Index interpretation E. coli: compound at 8 μg/mL with colistin; for fold reduction of MIC of colistin, E. coli: compound at 8 µg/mL, versus colistin alone
Protocol: as §1
To evaluate the antimicrobial effect of the two molecules in association, the FIC index was calculated as follows. The MICs of each of the two molecules tested individually and in combination with each other were evaluated and the results have been included in the following formula as reported by Meletiadis et al.: FIC=MICA in combination/MICA+MICB in combination/MICB where MICA was the MIC of the compound UPAR415 and MICA in combination was the MIC of UPAR415 in combination with colistin. MICB was the MIC of colistin and MICB in combination was the MIC of colistin in combination with UPAR415. From the results of the FIC index formula, the antimicrobial activity in combination of the two molecules can be considered: synergistic, additive, indifferent of antagonistic. If the FIC index is ≤ 0.5, the association is synergic; additive if FIC is between 0.5 and 1; indifferent if FIC is between 1 and 4; and antagonistic if FIC is ≥4 [50].
Statistical analysis of checkerboard results in comparison with MIC values of colistin alone was performed using the Analysis of Variance (ANOVA) test.

Compound | MIC (S. Typhimurium DW378; Salmonella enterica, TYPHIMURIUM, 12 h, read-out: MIC 12h (μg/mL)) [µg/mL] | MIC Colistin (S. Typhimurium DW378; colistin in combination with 12h at 32 μg/mL, DW378 mutant strain) [µg/mL] | MIC Colistin E. coli (E. coli ATCC 25922) [µg/mL] | FIC Index E. coli (E. coli ATCC 25922) | FIC Index interpretation E. coli (E. coli ATCC 25922) | fold reduction of MIC of colistin, E. coli (E. coli ATCC 25922) [fold]
CCOC(=O)C1(Cc2ccc(C)cc2)CC1c1cccc(N2CC(C)OC(C)C2)c1 (stereo not drawn) [Compound 12h, trans-ethyl 2-(3-(2,6-dimethylmorpholino)phenyl)-1-(4-methylbenzyl)cyclopropanecarboxylate] | > 512 | 0.141 ± 0.09 | 0.122 ± 0.08 | 0.33 | synergy (If the FIC index is ≤ 0.5, the association is synergic) | 2
Cc1ccc(CC2(C(=O)O)CC2c2cccc(N3CC(C)OC(C)C3)c2)cc1 (stereo not drawn) [Compound 13h, trans-2-(3-(2,6-dimethylmorpholino)phenyl)-1-(4-methylbenzyl)cyclopropanecarboxylic acid] |  |  | 0.18 ± 0.06 | 0.48 | synergy (If the FIC index is ≤ 0.5, the association is synergic) | 3
